Laboratory results as given in the NIST ThermoML archive (doi:10.1016/j.fluid.2016.02.030).
± gives the expanded uncertainty stated by the source.

Assay: osmotic coefficient (dimensionless); mn = molality of the nth substance listed, in mol/kg
Conditions: 308.15 K, Liquid, omometer

O=C[C@H](O)[C@H](O)[C@H](O)CO [D-ribose] + O
Conditions | osmotic coefficient
m1 = 0.0338 | 0.9992 ± 0.002
m1 = 0.0672 | 0.988 ± 0.002
m1 = 0.1353 | 0.9826 ± 0.0021
m1 = 0.2041 | 0.9786 ± 0.0021
m1 = 0.2789 | 0.9769 ± 0.0022
m1 = 0.3505 | 0.9753 ± 0.0022
m1 = 0.4242 | 0.9745 ± 0.0022
m1 = 0.499 | 0.9743 ± 0.0022
m1 = 0.5801 | 0.9736 ± 0.0022
m1 = 0.6538 | 0.9734 ± 0.0022
m1 = 0.7165 | 0.973 ± 0.0022
m1 = 0.7426 | 0.9732 ± 0.0022
m1 = 0.8289 | 0.973 ± 0.0022
m1 = 0.9054 | 0.9732 ± 0.0022
m1 = 1.038 | 0.9735 ± 0.0022
m1 = 1.183 | 0.9735 ± 0.0022
m1 = 1.453 | 0.9745 ± 0.0022
m1 = 1.988 | 0.9774 ± 0.0022
m1 = 2.594 | 0.9857 ± 0.0021
m1 = 3.266 | 0.9944 ± 0.002

OC[C@@H](O)[C@@H](O)[C@H](O)[C@@H](O)CO [D-sorbitol] + O
Conditions | osmotic coefficient
m1 = 0.0278 | 0.9979 ± 0.002
m1 = 0.0558 | 1.001 ± 0.002
m1 = 0.111 | 0.9992 ± 0.002
m1 = 0.1676 | 1.003 ± 0.002
m1 = 0.2296 | 1.002 ± 0.002
m1 = 0.2892 | 1.004 ± 0.002
m1 = 0.3523 | 1.003 ± 0.002
m1 = 0.4124 | 1.004 ± 0.002
m1 = 0.4781 | 1.003 ± 0.002
m1 = 0.5436 | 1.003 ± 0.002
m1 = 0.6109 | 1.003 ± 0.002
m1 = 0.6764 | 1.003 ± 0.002
m1 = 0.7778 | 1.003 ± 0.002
m1 = 0.8812 | 1.004 ± 0.002
m1 = 0.9996 | 1.004 ± 0.002
m1 = 1.112 | 1.006 ± 0.002
m1 = 1.284 | 1.008 ± 0.002
m1 = 1.723 | 1.013 ± 0.0021
m1 = 2.342 | 1.027 ± 0.0022
m1 = 2.956 | 1.041 ± 0.0025
m1 = 3.645 | 1.057 ± 0.0028

OC[C@H]1O[C@@](CO)(O[C@H]2O[C@H](CO)[C@@H](O)[C@H](O)[C@H]2O)[C@@H](O)[C@@H]1O [D-sucrose] + O
Conditions | osmotic coefficient
m1 = 0.0296 | 0.9997 ± 0.002
m1 = 0.0581 | 1.001 ± 0.002
m1 = 0.0904 | 1.008 ± 0.002
m1 = 0.1209 | 1.013 ± 0.0021
m1 = 0.1534 | 1.017 ± 0.0021
m1 = 0.1988 | 1.019 ± 0.0021
m1 = 0.2535 | 1.025 ± 0.0022
m1 = 0.3157 | 1.028 ± 0.0022
m1 = 0.3938 | 1.032 ± 0.0023
m1 = 0.477 | 1.035 ± 0.0024
m1 = 0.5567 | 1.039 ± 0.0024
m1 = 0.5822 | 1.04 ± 0.0025
m1 = 0.648 | 1.042 ± 0.0025
m1 = 0.7265 | 1.047 ± 0.0026
m1 = 0.8492 | 1.053 ± 0.0027
m1 = 0.971 | 1.058 ± 0.0029
m1 = 1.087 | 1.065 ± 0.003
m1 = 1.186 | 1.067 ± 0.0031
m1 = 1.275 | 1.074 ± 0.0033
m1 = 1.996 | 1.149 ± 0.0058
m1 = 2.679 | 1.202 ± 0.0078
m1 = 3.412 | 1.248 ± 0.0096
m1 = 3.927 | 1.276 ± 0.011

O=C[C@H](O)[C@@H](O)[C@H](O)CO [D-xylose] + O
Conditions | osmotic coefficient
m1 = 5.333 | 1.007 ± 0.002
m1 = 5.362 | 1.002 ± 0.002
m1 = 5.4 | 0.9966 ± 0.002
m1 = 5.435 | 0.9919 ± 0.002
m1 = 5.468 | 0.9881 ± 0.002
m1 = 5.502 | 0.987 ± 0.0021
m1 = 5.516 | 0.9868 ± 0.0021
m1 = 5.53 | 0.9859 ± 0.0021
m1 = 5.542 | 0.9858 ± 0.0021
m1 = 5.551 | 0.9857 ± 0.0021
m1 = 5.559 | 0.9852 ± 0.0021
m1 = 5.566 | 0.9853 ± 0.0021
m1 = 5.574 | 0.985 ± 0.0021
m1 = 5.582 | 0.9853 ± 0.0021
m1 = 5.59 | 0.9852 ± 0.0021
m1 = 5.598 | 0.9866 ± 0.0021
m1 = 5.604 | 0.9869 ± 0.0021
m1 = 5.611 | 0.9874 ± 0.0021
m1 = 5.619 | 0.9894 ± 0.0021
m1 = 5.625 | 0.997 ± 0.0021

O=C[C@H](O)[C@@H](O)[C@@H](O)CO [L-arabinose] + O
Conditions | osmotic coefficient
m1 = 0.0332 | 0.9993 ± 0.002
m1 = 0.0672 | 0.9973 ± 0.002
m1 = 0.1346 | 0.9965 ± 0.002
m1 = 0.2071 | 0.995 ± 0.002
m1 = 0.2766 | 0.9956 ± 0.002
m1 = 0.3435 | 0.9951 ± 0.002
m1 = 0.4151 | 0.9944 ± 0.002
m1 = 0.4952 | 0.9947 ± 0.002
m1 = 0.5785 | 0.9949 ± 0.002
m1 = 0.6498 | 0.9944 ± 0.002
m1 = 0.8204 | 0.9948 ± 0.002
m1 = 0.9055 | 0.9945 ± 0.002
m1 = 1.041 | 0.9945 ± 0.002
m1 = 1.177 | 0.9944 ± 0.002
m1 = 1.313 | 0.9942 ± 0.002
m1 = 1.659 | 0.995 ± 0.002
m1 = 2.402 | 1.002 ± 0.002
m1 = 3.272 | 1.016 ± 0.0021

OC[C@@H](O)[C@H](O)[C@@H](O)CO [xylitol] + O
Conditions | osmotic coefficient
m1 = 0.0663 | 1.002 ± 0.002
m1 = 0.1332 | 1.002 ± 0.002
m1 = 0.2029 | 1.002 ± 0.002
m1 = 0.2718 | 1.002 ± 0.002
m1 = 0.3466 | 1.003 ± 0.002
m1 = 0.4199 | 1.004 ± 0.002
m1 = 0.495 | 1.005 ± 0.002
m1 = 0.5643 | 1.005 ± 0.002
m1 = 0.6343 | 1.005 ± 0.002
m1 = 0.7296 | 1.006 ± 0.002
m1 = 0.792 | 1.007 ± 0.002
m1 = 0.8908 | 1.008 ± 0.002
m1 = 0.9999 | 1.011 ± 0.002
m1 = 1.143 | 1.012 ± 0.002
m1 = 1.297 | 1.015 ± 0.0021
m1 = 1.474 | 1.017 ± 0.0021
m1 = 2.027 | 1.026 ± 0.0022
m1 = 2.646 | 1.036 ± 0.0024
m1 = 3.289 | 1.042 ± 0.0025
m1 = 4.413 | 1.048 ± 0.0026
